Data from paper PMC6304572, “Simultaneous Evaluation of the Influence of Panax ginseng on the Pharmacokinetics of Three Diester Alkaloids after Oral Administration of Aconiti Lateralis Radix in Rats Using UHPLC/QQQ-MS/MS” (Evidence-based Complementary and Alternative Medicine : eCAM, 2018).
Like-named read-outs stand apart in the source and are kept apart here.

Tests used:
[1] = Pharmacokinetics of three diester alkaloids in rat plasma after oral Aconiti Lateralis Radix extract, with or without 7-day P. ginseng pretreatment; format: in vivo, Sprague-Dawley rats; details: for CL/F / Cmax / Tmax / Vd/F / half-life: Sprague-Dawley, rat, in vivo, po, 1 g/kg; for CL/F / Cmax / Tmax / Vd/F / half-life / AUC(0-t) / AUC(0-∞): oral Aconiti Lateralis Radix extract 1 g/kg on 8th day; for CL/F: read-out: CLz/F (converted); for Cmax: read-out: Cmax; for Tmax: read-out: Tmax; for Vd/F: read-out: Vz/F; for half-life: read-out: t1/2z (converted)
Procedure: Rats were randomly divided into 4 groups: control group, P. ginseng (low, middle, and high) group. 7 days of oral administration of P. ginseng extract was administered at a dosage of 0.1, 1, 10 g/kg for P. ginseng group (low, middle, and high), respectively, once daily. Distilled water was administered at a dosage of 2 ml/kg for control group, simultaneously. On the 8th day, Aconiti Lateralis Radix extracts (1 g/kg) were orally administered to all groups. 0.5 ml plasma samples were collected in 1.5 ml centrifuge tubes (containing heparin sodium) at 10, 30, 60, 90, 120, 240, 480, 720, 1440, and 2880 min. All plasma samples were centrifuged for 15 min at 4000g. The supernatant was separated to another 1.5 ml centrifuge tubes and stored at -20°C.
Liquid-liquid extraction (ethyl acetate) and protein precipitation (50% acetonitrile plus 50% methanol) methods were compared to determine the best method to prepare the plasma sample. Liquid-liquid extraction method was chosen, due to reproducibly high recovery rates. The details of the extraction are as follows: 10 μL carbamazepine (IS) was added to 90 μL plasma, spiked with 400 μL ethyl acetate and the mixture vortexed for 15 seconds. After centrifugation at 12,000g for 10 min, the supernatant was transferred to another 1.5 mL centrifuge tube and dried under a stream of nitrogen at 37°C. The residue was redissolved in 100 μL 50% acetonitrile and centrifuged at 12,000g for 10 min and filtered through a 0.22 μm Micropore membrane. A 5 μL volume of supernatant was injected into LC-MS system for analysis.
Xevo TQ-S (Waters, USA) was utilized for the analysis of all biological samples. Chromatographic separation was conducted on Waters ACQUITY UPLC HSS T3 1.8 μm column (2.1 mm × 100 mm). Column temperature was 45°C and the flow rate was 0.5ml/min. Room temperature was 20 ± 2°C. Phase A consisted of water and 0.1% formic acid (v/v), and phase B consisted of acetonitrile (ACN) 0.1% formic acid (v/v). Column separation was performed by gradient elution: 0-0.5 min, 10% B; 1-2 min, 90% B; 4 min, 10% B.
Electrospray ionization (ESI) and positive ion V mode were used to determine the samples. The main parameters for mass spectrum were set as follows: capillary voltage: 3.5 kv; sample cone: 60 v; source offset: 50 v; source temperature: 150°C; desolvation temperature: 350°C; cone gas flow: 150 L/h; desolvation gas flow: 650 L/h; injection volume: 5 μL.
The data was acquired and analyzed by XEVO-QT-S (Waters). The pharmacokinetic parameters were analyzed by DAS pharmacokinetic program (Version 2.0). SAS statistical software was used to determine the difference between each group. All data was presented as mean ± SD, and P<0.05 was considered statistically significant.

[2] = Stability of the three alkaloids in rat plasma QC samples (4°C, room temperature, freeze-thaw); format: in vitro ADME; details: for Freeze-thaw Accuracy: freeze-thaw three times; for Room temperature stability (24 h) Accuracy: room temperature (about 25°C)
Procedure: Plasma from rats without any processing was used to evaluate the detection methods. 0.1, 0.25, 0.5, 1, 2.5, 5, 10 ng/ml were chosen to calculate standards curve. 0.1, 0.4, 4, 8 ng/mL were selected as the QC sample (n = 4) with repeated operations used to calculate accuracy and precision of the detection method. The data was acquired after keeping the samples at either +4°C 24 hours or room temperature (about 25°C) for 24 hours as well as using freeze-thaw methods (three times) to evaluate stability. Recovery of the developed methods was calculated by the following formula: recovery = measured value/ theoretical value × 100%.

[3] = P. ginseng-high (10 g/kg oral, 7 days)
[4] = P. ginseng-low (0.1 g/kg oral, 7 days)
[5] = P. ginseng-middle (1 g/kg oral, 7 days)
[6] = control group (distilled water 7 days)

Row | SMILES | CL/F [1, 3] | Cmax [1, 3] | Tmax [1, 3] | Vd/F [1, 3] | half-life [1, 3] | CL/F [1, 4] | Cmax [1, 4] | Tmax [1, 4] | Vd/F [1, 4] | half-life [1, 4] | CL/F [1, 5] | Cmax [1, 5] | Tmax [1, 5] | Vd/F [1, 5] | half-life [1, 5] | CL/F [1, 6] | Cmax [1, 6] | Tmax [1, 6] | Vd/F [1, 6] | half-life [1, 6] | also measured
1 | COC[C@@]12CC[C@H](OC)[C@]34C(C([C@H](OC)[C@H]13)[C@]1(OC(C)=O)[C@H]3[C@@H](OC(=O)c5ccccc5)[C@](O)(C[C@H]34)[C@@H](OC)[C@@H]1O)N(C)C2 [Hypaconitine] | 2320 mL/min/kg | 4.87 ± 1.36 ng/mL | 1.83 ± 1.29 h | 2280 ± 954 L/kg | 11.7 ± 4.21 h | 2380 mL/min/kg | 4.02 ± 2.01 ng/mL | 3.61 ± 3.47 h | 2020 ± 819 L/kg | 9.7 ± 3.55 h | 2360 mL/min/kg | 5.85 ± 2.71 ng/mL | 2.53 ± 3.01 h | 1400 ± 272 L/kg | 6.97 ± 1.77 h | 3400 mL/min/kg | 4.63 ± 1.96 ng/mL | 2.67 ± 2.91 h | 3880 ± 1700 L/kg | 14.1 ± 5.41 h | Change of Cmax versus control ([1]; all P. ginseng groups compared to control): did not change; AUC(0-t) [1, 3]: 71.75 ± 22.2^∗ μg/L∗h; AUC(0-∞) [1, 3]: 77.26 ± 25.15^∗ μg/L∗h; AUC(0-t) ([1]; P. ginseng-high (10 g/kg oral, 7 days), listed as hypaconitine): 71.75 ± 22.2 μg/L∗h; AUC(0-t) [1, 4]: 65.64 ± 13.14 μg/L∗h; AUC(0-∞) [1, 4]: 70.68 ± 8.89^∗ μg/L∗h; AUC(0-t) [1, 5]: 70.71 ± 7.55^∗ μg/L∗h; AUC(0-∞) [1, 5]: 71.49 ± 8.07^∗ μg/L∗h; AUC(0-t) ([1]; P. ginseng-middle (1 g/kg oral, 7 days), listed as hypaconitine): 70.71 ± 7.55 μg/L∗h; AUC(0-t) [1, 6]: 48.12 ± 24.59 μg/L∗h; AUC(0-∞) [1, 6]: 60.16 ± 28.03 μg/L∗h; 4°C temperature stability (24 h) Accuracy ([2]; QC conc. 0.40 ng/mL): 97.44 ± 2.35%; Freeze-thaw Accuracy ([2]; QC conc. 0.40 ng/mL): 99.71 ± 2.06%; Room temperature stability (24 h) Accuracy ([2]; QC conc. 0.40 ng/mL): 100.49 ± 2.52%; 4°C temperature stability (24 h) Accuracy ([2]; QC conc. 4.00 ng/mL): 104.96 ± 5.49%; Freeze-thaw Accuracy ([2]; QC conc. 4.00 ng/mL): 100.26 ± 6.03%; Room temperature stability (24 h) Accuracy ([2]; QC conc. 4.00 ng/mL): 98.72 ± 4.30%; 4°C temperature stability (24 h) Accuracy ([2]; QC conc. 8.00 ng/mL): 101.13 ± 4.82%; Freeze-thaw Accuracy ([2]; QC conc. 8.00 ng/mL): 102.33 ± 3.19%; Room temperature stability (24 h) Accuracy ([2]; QC conc. 8.00 ng/mL): 100.64 ± 3.60%
2 | CCN1C[C@]2(COC)[C@H](O)C[C@H](OC)[C@@]34[C@@H]5C[C@@]6(O)[C@H](OC(=O)c7ccccc7)[C@@H]5[C@@](OC(C)=O)([C@@H]([C@H](OC)[C@H]23)[C@@H]14)[C@@H](O)[C@@H]6OC [Aconitine] | 852 mL/min/kg | 11.5 ± 3.49 ng/mL | 1.33 ± 0.41 h | 1550 ± 686 L/kg | 26.5 ± 23.3 h | 2870 mL/min/kg | 5.03 ± 3.02 ng/mL | 4 ± 3.27 h | 2480 ± 945 L/kg | 10.1 ± 3.72 h | 2830 mL/min/kg | 5.79 ± 2.8 ng/mL | 2.11 ± 2.97 h | 1460 ± 190 L/kg | 6.14 ± 1.18 h | 3760 mL/min/kg | 3.88 ± 0.92 ng/mL | 2.67 ± 2.91 h | 3350 ± 1370 L/kg | 10.7 ± 4.78 h | AUC(0-t) [1, 3]: 162.98 ± 48.50^∗∗ μg/L∗h; AUC(0-∞) [1, 3]: 228.56 ± 100.03^∗∗ μg/L∗h; AUC(0-t) ([1]; P. ginseng-high (10 g/kg oral, 7 days), listed as aconitine): 162.98 ± 48.50 μg/L∗h; AUC(0-t) [1, 4]: 58 ± 13.02 μg/L∗h; AUC(0-∞) [1, 4]: 60.32 ± 12.99 μg/L∗h; AUC(0-t) [1, 5]: 61.05 ± 12.82^∗ μg/L∗h; AUC(0-∞) [1, 5]: 61.49 ± 13.16^∗ μg/L∗h; AUC(0-t) ([1]; P. ginseng-middle (1 g/kg oral, 7 days), listed as aconitine): 61.05 ± 12.82 μg/L∗h; AUC(0-t) [1, 6]: 40.77 ± 9.71 μg/L∗h; AUC(0-∞) [1, 6]: 46.20 ± 9.57 μg/L∗h; 4°C temperature stability (24 h) Accuracy ([2]; QC conc. 0.40 ng/mL): 99.65 ± 2.16%; Freeze-thaw Accuracy ([2]; QC conc. 0.40 ng/mL): 99.71 ± 2.06%; Room temperature stability (24 h) Accuracy ([2]; QC conc. 0.40 ng/mL): 100.49 ± 2.52%; 4°C temperature stability (24 h) Accuracy ([2]; QC conc. 4.00 ng/mL): 98.98 ± 9.99%; Freeze-thaw Accuracy ([2]; QC conc. 4.00 ng/mL): 99.91 ± 6.23%; Room temperature stability (24 h) Accuracy ([2]; QC conc. 4.00 ng/mL): 96.29 ± 3.26%; 4°C temperature stability (24 h) Accuracy ([2]; QC conc. 8.00 ng/mL): 101.57 ± 1.29%; Freeze-thaw Accuracy ([2]; QC conc. 8.00 ng/mL): 100.22 ± 1.87%; Room temperature stability (24 h) Accuracy ([2]; QC conc. 8.00 ng/mL): 97.66 ± 4.54%
